We go through 18 compounds from PubChem BioAssay (NCI).

The structures appear in SMILES notation.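 Exposure lasted 48 hours, with cells grown in 96-well plates and compounds tested at five concentrations. Abbreviation: GI50, concentration required for 50% inhibition of growth. TGI marks complete inhibition of growth.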 Some results are limits rather than exact numbers.

In the first assay the test system is EKVX NSCLC. Briefly: inhibition of tumour cell growth, NCI panel, 48 h.
For `C[C@@H]1CCC2[C@@H](C)[C@@H](OCC(CO[C@H]3OC4O[C@@]5(C)CC[C@H]6[C@H](C)CCC([C@H]3C)[C@@]46OO5)OC(=O)CCC(=O)O)OC3O[C@@]4(C)CC[C@@H]1[C@]32OO4` (stereo not given in full), the GI50 is 3030 nM and the TGI came out at 41 µM.

Regarding `COc1cc(OC)cc(-c2cc(=O)c3c(OC)c(OC)c(OC)c(OC)c3o2)c1`, the TGI was over 100 µM.

For `COc1cc2c(c(OC)c1OC)-c1ccc(OC)c(=O)cc1C(NC(=O)c1ccc(N=[N+]=[N-])cc1)CC2` (stereo not given), the TGI was over 100 µM.

With `O=C1OC(O)[C@@H]2[C@H]1[C@H]1CC[C@@H]2O1` (stereo not given in full), the GI50 is over 100000 nM and the TGI is over 100 µM.

The compound `COC(=O)C1=C(C)NC(C)=C(C(=O)OCCCN2CCC(c3ccccc3)(c3ccccc3)CC2)C1c1cccc([N+](=O)[O-])c1` (stereo not given) returned a TGI of 6.42 µM.

In turn, `N=Nc1c(OC(=O)Nc2cccc(Cl)c2)[nH]c2ccccc12` returned a TGI of 16.8 µM.

In the case of `Fc1cc2[nH]ncc2c2c3c(c(-c4cn[nH]c4)nc12)CCCC3`, the GI50 was 795 nM and the TGI stood at 3.98 µM.

Regarding `C=C1C(=O)O[C@H]2[C@H]1CC/C(COC(=O)c1c[nH]c3ccccc13)=C\CC[C@@]1(C)O[C@@H]21`, the GI50 was 315 nM and the TGI is 2.01 µM.

As for `CCN1CCN(c2nc(C)cc(N(CCNc3ccnc4cc(Cl)ccc34)Cc3ccc4c(c3)OCO4)n2)CC1`, the GI50 was 3140 nM and the TGI amounted to 13.9 µM.

`CCN(CC)c1ccc(-c2cc(-c3cc(OC)c(OC)c(OC)c3)nc(N3CCOCC3)c2C#N)cc1`: the GI50 is 2640 nM and the TGI is over 100 µM.

For the compound `C=C(Br)C(C)(Br)CCC(Br)C(C)(C)Cl` (stereo not given), the TGI was 51.3 µM.

For the compound `O=C(CCc1nnc2sc(-c3ccc(Cl)cc3Cl)nn12)c1nc2ncccc2[nH]1`, the GI50 is 2710 nM and the TGI stood at 7.98 µM.

The compound `NS(=O)(=O)c1cc(Br)c(N=Nc2ccc(O)c3ncccc23)c(Br)c1` yielded a TGI of over 100 µM.

For the compound `OCc1ccc(-c2ccc(-c3ccc(CO)s3)o2)s1`, the TGI was over 96.4 µM.

In the case of `O=C(Nc1ccc(Cl)cc1)c1cccc(NC2=C(Cl)C(=O)N(Cc3ccccc3)C2=O)c1`, the GI50 was 27300 nM and the TGI is over 100 µM.

Take `Cc1cc(/C=C/c2ccc3cc(N(C)C)ccc3[n+]2C)c(C)n1-c1ccccc1`: the GI50 is 102 nM and the TGI was 3.9 µM.

With `CC[C@H](Nc1ncnc2nc[nH]c12)c1oc2ccccc2c(=O)c1-c1cccc(F)c1`, the GI50 was 31800 nM and the TGI is over 100 µM.

As for `COc1cc(NCc2ccc3oc(=O)c(-c4ccccc4)nc3c2)cc(OC)c1OC`, the TGI is over 10 µM.

In a further assay the test system is SNB-19 CNS. Put plainly: inhibition of tumour cell growth, NCI panel, 48 h.
With `C[C@@H]1CCC2[C@@H](C)[C@@H](OCC(CO[C@H]3OC4O[C@@]5(C)CC[C@H]6[C@H](C)CCC([C@H]3C)[C@@]46OO5)OC(=O)CCC(=O)O)OC3O[C@@]4(C)CC[C@@H]1[C@]32OO4` (stereo not given in full), the GI50 is 10.1 µM and the TGI came out at 23.1 µM.

As to `COc1cc(OC)cc(-c2cc(=O)c3c(OC)c(OC)c(OC)c(OC)c3o2)c1`, the TGI is over 100 µM.

For `COc1cc2c(c(OC)c1OC)-c1ccc(OC)c(=O)cc1C(NC(=O)c1ccc(N=[N+]=[N-])cc1)CC2` (stereo not given), the TGI was over 100 µM.

Take `O=C1OC(O)[C@@H]2[C@H]1[C@H]1CC[C@@H]2O1` (stereo not given in full): the GI50 was over 100 µM and the TGI was over 100 µM.

`COC(=O)C1=C(C)NC(C)=C(C(=O)OCCCN2CCC(c3ccccc3)(c3ccccc3)CC2)C1c1cccc([N+](=O)[O-])c1` (stereo not given) showed a TGI of 3.24 µM.

`N=Nc1c(OC(=O)Nc2cccc(Cl)c2)[nH]c2ccccc12`: the TGI worked out at 18.5 µM.

In the case of `Fc1cc2[nH]ncc2c2c3c(c(-c4cn[nH]c4)nc12)CCCC3`, the GI50 was 1.65 µM and the TGI stood at 17.1 µM.

For the compound `C=C1C(=O)O[C@H]2[C@H]1CC/C(COC(=O)c1c[nH]c3ccccc13)=C\CC[C@@]1(C)O[C@@H]21`, the GI50 was 1.3 µM and the TGI was 2.91 µM.

In the case of `CCN1CCN(c2nc(C)cc(N(CCNc3ccnc4cc(Cl)ccc34)Cc3ccc4c(c3)OCO4)n2)CC1`, the GI50 is 3 µM and the TGI stood at 10.2 µM.

With `CCN(CC)c1ccc(-c2cc(-c3cc(OC)c(OC)c(OC)c3)nc(N3CCOCC3)c2C#N)cc1`, the GI50 is 12.8 µM and the TGI was over 100 µM.

`C=C(Br)C(C)(Br)CCC(Br)C(C)(C)Cl` (stereo not given) registered a TGI of 34.4 µM.

As to `O=C(CCc1nnc2sc(-c3ccc(Cl)cc3Cl)nn12)c1nc2ncccc2[nH]1`, the GI50 is 3.53 µM and the TGI amounted to 16.7 µM.

As for `NS(=O)(=O)c1cc(Br)c(N=Nc2ccc(O)c3ncccc23)c(Br)c1`, the TGI was over 100 µM.

With `OCc1ccc(-c2ccc(-c3ccc(CO)s3)o2)s1`, the TGI is over 100 µM.

On to `O=C(Nc1ccc(Cl)cc1)c1cccc(NC2=C(Cl)C(=O)N(Cc3ccccc3)C2=O)c1`, for which the GI50 is 17.6 µM and the TGI came out at 45.9 µM.

On to `Cc1cc(/C=C/c2ccc3cc(N(C)C)ccc3[n+]2C)c(C)n1-c1ccccc1`, for which the GI50 was 0.161 µM and the TGI worked out at 5.97 µM.

As for `CC[C@H](Nc1ncnc2nc[nH]c12)c1oc2ccccc2c(=O)c1-c1cccc(F)c1`, the GI50 is 30.5 µM and the TGI is over 100 µM.

`COc1cc(NCc2ccc3oc(=O)c(-c4ccccc4)nc3c2)cc(OC)c1OC` returned a TGI of over 10 µM.

The subject of another assay is SF-295 CNS. Put plainly: inhibition of tumour cell growth, NCI panel, 48 h.
Regarding `C[C@@H]1CCC2[C@@H](C)[C@@H](OCC(CO[C@H]3OC4O[C@@]5(C)CC[C@H]6[C@H](C)CCC([C@H]3C)[C@@]46OO5)OC(=O)CCC(=O)O)OC3O[C@@]4(C)CC[C@@H]1[C@]32OO4` (stereo not given in full), the GI50 is 33.5 nM and the TGI was 15.8 µM.

Turning to `COc1cc(OC)cc(-c2cc(=O)c3c(OC)c(OC)c(OC)c(OC)c3o2)c1`, the TGI was 69.8 µM.

`COc1cc2c(c(OC)c1OC)-c1ccc(OC)c(=O)cc1C(NC(=O)c1ccc(N=[N+]=[N-])cc1)CC2` (stereo not given) displayed a TGI of 0.0582 µM.

As to `O=C1OC(O)[C@@H]2[C@H]1[C@H]1CC[C@@H]2O1` (stereo not given in full), the GI50 is over 100000 nM and the TGI was over 100 µM.

Compound `COC(=O)C1=C(C)NC(C)=C(C(=O)OCCCN2CCC(c3ccccc3)(c3ccccc3)CC2)C1c1cccc([N+](=O)[O-])c1` (stereo not given) registered a TGI of 3.18 µM.

Take `N=Nc1c(OC(=O)Nc2cccc(Cl)c2)[nH]c2ccccc12`: the TGI came to 5.99 µM.

`Fc1cc2[nH]ncc2c2c3c(c(-c4cn[nH]c4)nc12)CCCC3`: the GI50 is 1440 nM and the TGI was 6.44 µM.

Regarding `C=C1C(=O)O[C@H]2[C@H]1CC/C(COC(=O)c1c[nH]c3ccccc13)=C\CC[C@@]1(C)O[C@@H]21`, the GI50 is 1940 nM and the TGI stood at 4.47 µM.

For `CCN1CCN(c2nc(C)cc(N(CCNc3ccnc4cc(Cl)ccc34)Cc3ccc4c(c3)OCO4)n2)CC1`, the GI50 was 1760 nM and the TGI stood at 3.38 µM.
